Measurements published in ChEMBL document CHEMBL3046960, “Are traditional neem extract preparations as efficient as a commercial formulation of azadirachtin A?” (2011).

Columns and labels:
Format in all cases: functional
[1] = tested on: Spodoptera littoralis; test: Insecticidal activity against third to fourth instar larvae Spodoptera littoralis in broad bean plant assessed as mortality rate at 25 mg/L (reference value: 33.3%)
[2] = tested on: Macrosteles quadripunctulatus; test: Insecticidal activity against third to fourth-instar nymphs stage Macrosteles quadripunctulatus assessed as mortality rate at 25 mg/L (reference value: 11.4%)
[3] = tested on: Bemisia tabaci; test: Insecticidal activity against Bemisia tabaci (sweet potato whitefly) in cucumber plant assessed as mortality rate at 25 mg/L relative to control

**Q.** How did the mortality at 25 µg/mL [1] turn out when `C/C=C(\C)C(=O)O[C@H]1C[C@@H](OC(C)=O)[C@@]2(C(=O)OC)CO[C@H]3[C@@H](O)[C@@](C)([C@]45O[C@@]4(C)[C@@H]4C[C@H]5O[C@@H]5OC=C[C@@]54O)[C@H]4[C@]1(CO[C@]4(O)C(=O)OC)[C@@H]32` [AZADIRACHTIN A] was run?
**A.** Its mortality at 25 µg/mL is 83.5%.

**Q.** What about the mortality at 25 µg/mL [2] of the same compound?
**A.** The mortality at 25 µg/mL was 30%.

**Q.** And the mortality at 25 µg/mL [3]?
**A.** Its mortality at 25 µg/mL is 82.8%.

**Q.** `C/C=C(\C)C(=O)O[C@H]1C[C@@H](OC(C)=O)[C@@]2(C(=O)OC)CO[C@H]3[C@@H](O)[C@@](C)([C@]45O[C@@]4(C)[C@H]4C[C@@H]5O[C@@H]5OC=C[C@@]54O)[C@H]4[C@]1(CO[C@]4(O)C(=O)OC)[C@@H]32` [AZADIRACTIN] was tested. Which mortality at 25 µg/mL [1] did it give?
**A.** Its mortality at 25 µg/mL is 100%.

**Q.** And the mortality at 25 µg/mL [2]?
**A.** Its mortality at 25 µg/mL is 85.7%.

**Q.** What about the mortality at 25 µg/mL [3] of the same compound?
**A.** The mortality at 25 µg/mL was 94.1%.
